Data: article PMC11010885, “Functional Analysis and Tissue-Specific Expression of Calcitonin and CGRP with RAMP-Modulated Receptors CTR and CLR in Chickens” (Animals : an Open Access Journal from MDPI, 2024)
“Also recorded” adds a separate entry of the source.

Assays:
Format in all cases: cell-based
[1] = test system: chicken CTR + RAMP3; assay: MAPK/ERK pGL4-SRE-luciferase reporter assay, CTR + RAMP3 in CHO cells; conditions: 10^−12 M to 10^−6 M, 6 h, mean ± SEM, n = 3, read-out: EC50, MAPK/ERK signaling pathway
Method: (§1) Chinese hamster ovary (CHO) cells were cultured in Dulbecco’s modified Eagle’s medium (DMEM) supplemented with 10% (vol/vol) fetal bovine serum (HyClone, Logan, UT, USA), 100 U/mL penicillin G and 100 μg/mL streptomycin. The cells were maintained in a 90 mm culture dish (Nunc, Rochester, NY, USA) and incubated at 37 °C with 5% CO2. To investigate the signaling pathways associated with each receptor in CHO cells, three different reporter systems (pGL3-CRE-luciferase, pGL4-SRE-luciferase, and pGL3-NFAT-RE-luciferase) were utilized to monitor intracellular cAMP/PKA and MAPK/ERK signaling pathways and calcium mobilization of the activated receptors, respectively.
(§2) Prior to the transfection procedure, the cells were initially cultured in 6-well plates (Nunc, Rochester, NY, USA), maintaining a seeding density of approximately 300,000 cells per well. Upon achieving approximately 70% confluence, the cells underwent a co-transfection process. […] The fluorescence activity of the luciferase in each treatment group was measured using a multimode microplate reader (TriStar LB941, Berthold Technologies, Bad Wildbad, Germany). Finally, the fluorescence activity of each treatment group was expressed as a relative increase ratio compared to the control group.

[2] = test system: chicken CLR; assay: MAPK/ERK pGL4-SRE-luciferase reporter assay, CLR + pcDNA in CHO cells; conditions: 10^−12 M to 10^−6 M, 6 h, mean ± SEM, n = 3, read-out: EC50, MAPK/ERK signaling pathway
Method: as §1, §2

[3] = test system: chicken CLR + RAMP3; assay: Western blot CREB phosphorylation, CLR + RAMP3 in CHO cells; conditions: 10 nM, 10 min, n = 3
Method: (§3) To assess whether the activation of chicken CTR and CLR, along with the presence of RAMPs, can augment the phosphorylation levels of cAMP response element-binding protein (CREB), 200 ng of CTR or CLR expression plasmids were combined with 1000 ng of chicken RAMPs or an empty pcDNA3.1 (+) vector in a 100 μL buffer. The resulting mixture was then transfected into CHO cells in a 12-well plate (Nunc, Rochester, NY, USA) using 3.6 μL of PEI MAX transfection reagent. After a 24 h incubation period, the cells were exposed to chicken CT (10 nM) or CGRP (10 nM) for 10 min. Subsequently, the culture medium was removed, and the cells were lysed according to the manufacturer’s instructions. Western blot analysis was performed to quantify the levels of CREB and phosphorylated CREB (p-CREB). The optical densities were analyzed and normalized using the software, ImageJ 1.52a (National Institutes of Health, Bethesda, MD, USA). The relative expression of p-CREB/CREB was determined by calculating the ratio of the optical density to that of the control without peptide treatment (0 min).

[4] = test system: chicken CLR + RAMP2; assay: Calcium pGL3-NFAT-RE-luciferase reporter assay, CLR + RAMP2 in CHO cells; conditions: CLR + RAMP2, CHO cells, pGL3-NFAT-RE-luciferase, 10^−12 M to 10^−6 M, 6 h; mean ± SEM, n = 3; read-out: EC50, calcium signaling pathway
Method: as §1
(§4) Prior to the transfection procedure, the cells were initially cultured in 6-well plates (Nunc, Rochester, NY, USA), maintaining a seeding density of approximately 300,000 cells per well. Upon achieving approximately 70% confluence, the cells underwent a co-transfection process. This procedure entailed the introduction of 700 ng of various luciferase reporter constructs (namely, pGL3-CRE-luciferase, pGL4-SRE-luciferase, or pGL3-NFAT-RE-luciferase) combined with 200 ng of a specific receptor plasmid (CTR or CLR) and 1000 ng of either RAMP1, RAMP2, RAMP3 expression plasmids, or alternatively, the empty pcDNA3.1 (+) vector. A volume of 5.7 μL of PEI MAX was used in 200 μL of buffer following the manufacturer’s protocol. After 24 h of incubation, the transfected CHO cells were subcultured in 96-well plates and passaged for an additional 24 h before peptide treatment. Then, the medium from the 96-well plates was removed, and the cells were treated with chicken CT/CGRP-containing medium (or untreated medium as a control) at concentrations ranging from 10^−12 M to 10^−6 M for 6 h. […] The fluorescence activity of the luciferase in each treatment group was measured using a multimode microplate reader (TriStar LB941, Berthold Technologies, Bad Wildbad, Germany). Finally, the fluorescence activity of each treatment group was expressed as a relative increase ratio compared to the control group.

[5] = test system: chicken CTR + RAMP2; assay: Calcium pGL3-NFAT-RE-luciferase reporter assay, CTR + RAMP2 in CHO cells; conditions: CTR + RAMP2, CHO cells, pGL3-NFAT-RE-luciferase, 10^−12 M to 10^−6 M, 6 h; mean ± SEM, n = 3; read-out: EC50, calcium signaling pathway
Method: as §1, §4

[6] = test system: chicken CTR; assay: Calcium pGL3-NFAT-RE-luciferase reporter assay, CTR + pcDNA in CHO cells; conditions: 10^−12 M to 10^−6 M, 6 h, mean ± SEM, n = 3, read-out: EC50, calcium signaling pathway
Method: as §1, §2

[7] = test system: chicken CTR + RAMPs; assay: Western blot CREB phosphorylation, CTR + RAMPs in CHO cells; conditions: 10 nM, 10 min, n = 3
Method: as §3

[8] = test system: chicken CLR + RAMP3; assay: Calcium pGL3-NFAT-RE-luciferase reporter assay, CLR + RAMP3 in CHO cells; conditions: 10^−12 M to 10^−6 M, 6 h, mean ± SEM, n = 3, read-out: EC50, calcium signaling pathway
Method: as §1, §2

[9] = test system: chicken CLR in the absence or presence of RAMPs; assay: cAMP/PKA pGL3-CRE-luciferase reporter assay, CLR without and with RAMPs compared
Method: as §1
(§5) Prior to the transfection procedure, the cells were initially cultured in 6-well plates (Nunc, Rochester, NY, USA), maintaining a seeding density of approximately 300,000 cells per well. Upon achieving approximately 70% confluence, the cells underwent a co-transfection process. This procedure entailed the introduction of 700 ng of various luciferase reporter constructs (namely, pGL3-CRE-luciferase, pGL4-SRE-luciferase, or pGL3-NFAT-RE-luciferase) combined with 200 ng of a specific receptor plasmid (CTR or CLR) and 1000 ng of either RAMP1, RAMP2, RAMP3 expression plasmids, or alternatively, the empty pcDNA3.1 (+) vector. A volume of 5.7 μL of PEI MAX was used in 200 μL of buffer following the manufacturer’s protocol. After 24 h of incubation, the transfected CHO cells were subcultured in 96-well plates and passaged for an additional 24 h before peptide treatment. Then, the medium from the 96-well plates was removed, and the cells were treated with chicken CT/CGRP-containing medium (or untreated medium as a control) at concentrations ranging from 10^−12 M to 10^−6 M for 6 h. Subsequently, the cells were harvested for luciferase assays by lysing them in 1 × passive lysis buffer. To measure the luciferase activity of the cell lysate, 40 μL of luciferase assay reagent (Promega, Madison, WI, USA) was mixed with the cell lysate following the manufacturer’s instructions. The fluorescence activity of the luciferase in each treatment group was measured using a multimode microplate reader (TriStar LB941, Berthold Technologies, Bad Wildbad, Germany). Finally, the fluorescence activity of each treatment group was expressed as a relative increase ratio compared to the control group.

[10] = test system: chicken CTR + RAMP1; assay: cAMP/PKA pGL3-CRE-luciferase reporter assay, CTR + RAMP1 in CHO cells; conditions: 10^−12 M to 10^−6 M, 6 h, mean ± SEM, n = 3, read-out: EC50, cAMP/PKA signaling pathway
Method: as §1, §2

[11] = test system: chicken CTR; assay: cAMP/PKA pGL3-CRE-luciferase reporter assay, CTR + pcDNA in CHO cells
Method: as §1, §5

[12] = test system: chicken CLR + RAMP1; assay: MAPK/ERK pGL4-SRE-luciferase reporter assay, CLR + RAMP1 in CHO cells; conditions: 10^−12 M to 10^−6 M, 6 h, mean ± SEM, n = 3, read-out: EC50, MAPK/ERK signaling pathway
Method: as §1, §2

[13] = test system: chicken CTR + RAMP3; assay: cAMP/PKA pGL3-CRE-luciferase reporter assay, CTR + RAMP3 in CHO cells; conditions: 10^−12 M to 10^−6 M, 6 h, mean ± SEM, n = 3, read-out: EC50, cAMP/PKA signaling pathway
Method: as §1, §2

[14] = test system: chicken CTR; assay: MAPK/ERK pGL4-SRE-luciferase reporter assay, CTR + pcDNA in CHO cells; conditions: 10^−12 M to 10^−6 M, 6 h, mean ± SEM, n = 3, read-out: EC50, MAPK/ERK signaling pathway
Method: as §1, §2

[15] = test system: chicken CTR; assay: Western blot CREB phosphorylation, CTR in CHO cells; conditions: 10 nM, 10 min, n = 3
Method: as §3

[16] = test system: chicken CLR + RAMP3; assay: MAPK/ERK pGL4-SRE-luciferase reporter assay, CLR + RAMP3 in CHO cells; conditions: 10^−12 M to 10^−6 M, 6 h, mean ± SEM, n = 3, read-out: EC50, MAPK/ERK signaling pathway
Method: as §1, §2

calcitonin gene-related peptide [CGRP] was tested, and the EC50 [1] was 0.67 ± 0.24 nM, the EC50 [2] was > 100 nM and the “CREB phosphorylation (p-CREB/CREB vs. control, 0 min)” value [3] was “significantly enhanced the CREB phosphorylation”. The EC50 [4] was > 100 nM, the EC50 [5] was > 100 nM and the EC50 [6] was > 100 nM. The “CREB phosphorylation (p-CREB/CREB vs. control, 0 min)” value [7] was “significantly increased the CREB phosphorylation”, the EC50 [8] was > 100 nM and the “effect of RAMP co-expression on sensitivity of CLR” value ([9]; CHO cells, pGL3-CRE-luciferase) was “a significant increase in CLR’s sensitivity to CGRP with RAMP1 and RAMP3 co-expression; also recorded: RAMP2 co-expression led to a limited enhancement in sensitivity”. For the same substance, the “rank order of receptor sensitivity” value ([9]; CLR without/with RAMPs) was “CLR + RAMP1 > CLR + RAMP3 >> CLR + RAMP2 >> CLR”, the EC50 [10] was 0.1 ± 0.01 nM and the EC50 ([11]; CTR + pcDNA, CHO cells, pGL3-CRE-luciferase, 10^−12 M to 10^−6 M, 6 h, mean ± SEM, n = 3, read-out: EC50, cAMP/PKA signaling pathway) was 2.35 ± 0.63 nM. The “activation (cAMP production), in words” value ([11]; independent CTR) was “preferentially activates CTR”, the EC50 [12] was 0.66 ± 0.11 nM and the EC50 [13] was 0.24 ± 0.07 nM. The EC50 [14] was 6.73 ± 1.78 nM, the “CREB phosphorylation (p-CREB/CREB vs. control, 0 min)” value [15] was “significantly increased the CREB phosphorylation” and the EC50 [16] was 4.31 ± 1.73 nM.
